Reference: patent US20250195536A1, “BICYCLOOCTANE KRAS INHIBITORS” (Incyte Corporation, priority 2023, published 2025)

How the values were obtained:
[1] = target: KRAS G12V (Homo sapiens, UniProt P01116, G12V); test: GDP-GTP exchange assay (KRAS G12V); format: biochemical; conditions: bodipy-GDP/GppNHp exchange with SOS1; 3 h incubation after GppNHp-SOS1;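 note: one dagger IC50 up to 100 nM and two daggers above 100 nM up to 1 μM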
Outline: (§1)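 IC50 came from a four-parameter fit of fluorescence loss (485/520 nm) as SOS1 (150 nM) swapped bodipy-GDP for GppNHp (500 μM) on 2.5 nM KRAS, final concentrations. Compounds were pre-incubated 4 h at r.t. (pH 7.5 Hepes, 10 mM MgCl2); exchange ran 2 h (G12D) or 3 h (G12V).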

[2] = Caco2 assay (permeability, Papp A-B); format: in vitro ADME; conditions: human, Caco-2, absorptive direction (A-B), 50 μM test compound, 4% BSA in receiver
Outline: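 Absorptive (A-B) Papp: 50 μM test compound in HBSS added to apical side of 22-25-day Caco-2 monolayers (TEER 300 Ω·cm^2), receiver buffer containing 4% BSA. After 120 min at 37 °C, 5% CO2, both sides analysed by LCMS; Papp calculated from flux rate normalized to area and donor amount.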

[3] = target: KRAS G12D (Homo sapiens, UniProt P01116, G12D); test: GDP-GTP exchange assay (KRAS G12D); format: biochemical; conditions: bodipy-GDP/GppNHp exchange with SOS1; 4 h pre-incubation, 2 h reaction;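 note: one dagger IC50 up to 100 nM and two daggers above 100 nM up to 1 μM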
KRAS G12D, sequence (P01116 1-188 isoform P01116-2 G12D): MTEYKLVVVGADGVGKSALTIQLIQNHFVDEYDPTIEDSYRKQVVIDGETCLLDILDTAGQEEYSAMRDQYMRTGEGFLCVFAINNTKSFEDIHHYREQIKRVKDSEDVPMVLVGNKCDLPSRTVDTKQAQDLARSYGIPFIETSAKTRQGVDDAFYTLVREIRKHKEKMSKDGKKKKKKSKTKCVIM
Outline: as §1

KRAS G12V, sequence (P01116 1-188 isoform P01116-2 G12V): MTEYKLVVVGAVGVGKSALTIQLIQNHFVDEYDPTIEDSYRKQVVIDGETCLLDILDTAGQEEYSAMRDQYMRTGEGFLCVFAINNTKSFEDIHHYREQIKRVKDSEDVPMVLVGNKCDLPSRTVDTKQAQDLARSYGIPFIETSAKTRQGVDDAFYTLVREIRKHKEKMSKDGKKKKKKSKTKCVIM

G12V_exchange (KRAS_G12V exchange assay IC50) [1] | Papp A→B at 120 min, 50 μM [2] | G12D_exchange (KRAS_G12D exchange assay IC50) [3] | SMILES
† | ≤ 0.5 ×10⁻⁶ cm/s | † | Cc1ncnc(N2C[C@@H]3C[C@H](C2)N(C(=O)C2CC2)[C@H]3c2cc3c(C)nc4c(F)c(-c5cccc(Cl)c5Cl)c(CCC#N)cc4c3n2[C@H]2[C@H]3CN[C@@H]2C3)c1F (atropisomer, axis not shown; (Ra)) [Example 31, 3-((Ra)-1-((1R,4R,5S)-2-Azabicyclo[2.1.1]hexan-5-yl)-2-((1 S,5R,7R)-6-(cyclopropanecarbonyl)-3-(5-fluoro-6-methylpyrimidin-4-yl)-3,6-diazabicyclo[3.2.1]octan-7-yl)-7-(2,3-dichlorophenyl)-6-fluoro-4-methyl-1H-pyrrolo[3,2-c]quinolin-8-yl)propanenitrile]
† | > 1 ×10⁻⁶ cm/s | † | Cc1nc2c(F)c(-c3cccc(Cl)c3Cl)c(CCC#N)cc2c2c1cc([C@H]1[C@H]3C[C@H](CN(c4ncc(C(C)C)s4)C3)N1C(=O)C1CC1)n2[C@H]1[C@H]2CN[C@@H]1C2 (atropisomer, axis not shown; (Ra)) [Example 32, 3-((Ra)-1-((1R,4R,5S)-2-Azabicyclo[2.1.1]hexan-5-yl)-2-((1 S,5R,7R)-6-(cyclopropanecarbonyl)-3-(5-isopropylthiazol-2-yl)-3,6-diazabicyclo[3.2.1]octan-7-yl)-7-(2,3-dichlorophenyl)-6-fluoro-4-methyl-1H-pyrrolo[3,2-c]quinolin-8-yl)propanenitrile]
† | ≤ 0.5 ×10⁻⁶ cm/s | † | Cc1nc2c(F)c(-c3cccc(Cl)c3Cl)c(CCC#N)cc2c2c1cc([C@H]1[C@H]3C[C@H](CN(c4ncccn4)C3)N1C(=O)C1CC1)n2[C@H]1[C@H]2CN[C@@H]1C2 (atropisomer, axis not shown; (Ra)) [Example 33, 3-((Ra)-1-((1R,4R,5S)-2-azabicyclo[2.1.1]hexan-5-yl)-2-((1S,5R,7R)-6-(cyclopropanecarbonyl)-3-(pyrimidin-2-yl)-3,6-diazabicyclo[3.2.1]octan-7-yl)-7-(2,3-dichlorophenyl)-6-fluoro-4-methyl-1H-pyrrolo[3,2-c]quinolin-8-yl)propanenitrile]
† | ≤ 0.5 ×10⁻⁶ cm/s | † | Cc1nc2c(F)c(-c3cccc(Cl)c3Cl)c(CCC#N)cc2c2c1cc([C@H]1[C@H]3C[C@H](CN(c4ccc(C(F)(F)F)nn4)C3)N1C(=O)C1CC1)n2[C@H]1[C@H]2CN[C@@H]1C2 (atropisomer, axis not shown; (Ra)) [Example 34, 3-((Ra)-1-((1R,4R,5S)-2-azabicyclo[2.1.1]hexan-5-yl)-2-((1S,5R,7R)-6-(cyclopropanecarbonyl)-3-(6-(trifluoromethyl)pyridazin-3-yl)-3,6-diazabicyclo[3.2.1]octan-7-yl)-7-(2,3-dichlorophenyl)-6-fluoro-4-methyl-1H-pyrrolo[3,2-c]quinolin-8-yl)propanenitrile]
† | ≤ 0.5 ×10⁻⁶ cm/s | † | Cc1nc2c(F)c(-c3cccc(Cl)c3Cl)c(CCC#N)cc2c2c1cc([C@H]1[C@H]3C[C@H](CN(c4ccn(C)c(=O)c4)C3)N1C(=O)C1CC1)n2[C@H]1[C@H]2CN[C@@H]1C2 (atropisomer, axis not shown; (Ra)) [Example 35, 3-((Ra)-1-((1R,4R,5S)-2-azabicyclo[2.1.1]hexan-5-yl)-2-((1S,5R,7R)-6-(cyclopropanecarbonyl)-3-(1-methyl-2-oxo-1,2-dihydropyridin-4-yl)-3,6-diazabicyclo[3.2.1]octan-7-yl)-7-(2,3-dichlorophenyl)-6-fluoro-4-methyl-1H-pyrrolo[3,2-c]quinolin-8-yl)propanenitrile]
† | ≤ 0.5 ×10⁻⁶ cm/s | † | Cc1nc2c(F)c(-c3cccc(Cl)c3Cl)c(CCC#N)cc2c2c1cc([C@H]1[C@H]3C[C@H](CN(c4ccccn4)C3)N1C(=O)C1CC1)n2[C@H]1[C@H]2CN[C@@H]1C2 (atropisomer, axis not shown; (Ra)) [Example 36, 3-((Ra)-1-((1R,4R,5S)-2-azabicyclo[2.1.1]hexan-5-yl)-2-((1S,5R,7R)-6-(cyclopropanecarbonyl)-3-(pyridin-2-yl)-3,6-diazabicyclo[3.2.1]octan-7-yl)-7-(2,3-dichlorophenyl)-6-fluoro-4-methyl-1H-pyrrolo[3,2-c]quinolin-8-yl)propanenitrile]
† | ≤ 0.5 ×10⁻⁶ cm/s | † | Cc1nc2c(F)c(-c3cccc(Cl)c3Cl)c(CCC#N)cc2c2c1cc([C@H]1[C@H]3C[C@H](CN(c4ccnc(C(F)(F)F)c4)C3)N1C(=O)C1CC1)n2[C@H]1[C@H]2CN[C@@H]1C2 (atropisomer, axis not shown; (Ra)) [Example 38, 3-((Ra)-1-((1R,4R,5S)-2-azabicyclo[2.1.1]hexan-5-yl)-2-((1S,5R,7R)-6-(cyclopropanecarbonyl)-3-(2-(trifluoromethyl)pyridin-4-yl)-3,6-diazabicyclo[3.2.1]octan-7-yl)-7-(2,3-dichlorophenyl)-6-fluoro-4-methyl-1H-pyrrolo[3,2-c]quinolin-8-yl)propanenitrile]
† | ≤ 0.5 ×10⁻⁶ cm/s | † | Cc1nc2c(F)c(-c3cccc(Cl)c3Cl)c(CCC#N)cc2c2c1cc([C@H]1[C@H]3C[C@H](CN(c4cc(C(F)(F)F)ccn4)C3)N1C(=O)C1CC1)n2[C@H]1[C@H]2CN[C@@H]1C2 (atropisomer, axis not shown; (Ra)) [Example 39, 3-((Ra)-1-((1R,4R,5S)-2-azabicyclo[2.1.1]hexan-5-yl)-2-((1S,5R,7R)-6-(cyclopropanecarbonyl)-3-(4-(trifluoromethyl)pyridin-2-yl)-3,6-diazabicyclo[3.2.1]octan-7-yl)-7-(2,3-dichlorophenyl)-6-fluoro-4-methyl-1H-pyrrolo[3,2-c]quinolin-8-yl)propanenitrile]
† | ≤ 0.5 ×10⁻⁶ cm/s | † | Cc1nc2c(F)c(-c3cccc(Cl)c3Cl)c(CCC#N)cc2c2c1cc([C@H]1[C@H]3C[C@H](CN(c4cnccn4)C3)N1C(=O)C1CC1)n2[C@H]1[C@H]2CN[C@@H]1C2 (atropisomer, axis not shown; (Ra)) [Example 40, 3-((Ra)-1-((1R,4R,5S)-2-azabicyclo[2.1.1]hexan-5-yl)-2-((1S,5R,7R)-6-(cyclopropanecarbonyl)-3-(pyrazin-2-yl)-3,6-diazabicyclo[3.2.1]octan-7-yl)-7-(2,3-dichlorophenyl)-6-fluoro-4-methyl-1H-pyrrolo[3,2-c]quinolin-8-yl)propanenitrile]
† | ≤ 0.5 ×10⁻⁶ cm/s | † | Cc1nc2c(F)c(-c3cccc(Cl)c3Cl)c(CCC#N)cc2c2c1cc([C@H]1[C@H]3C[C@H](CN(c4ncc(C(F)(F)F)cn4)C3)N1C(=O)C1CC1)n2[C@H]1[C@H]2CN[C@@H]1C2 (atropisomer, axis not shown; (Ra)) [Example 41, 3-((Ra)-1-((1R,4R,5S)-2-azabicyclo[2.1.1]hexan-5-yl)-2-((1S,5R,7R)-6-(cyclopropanecarbonyl)-3-(5-(trifluoromethyl)pyrimidin-2-yl)-3,6-diazabicyclo[3.2.1]octan-7-yl)-7-(2,3-dichlorophenyl)-6-fluoro-4-methyl-1H-pyrrolo[3,2-c]quinolin-8-yl)propanenitrile]
† | ≤ 0.5 ×10⁻⁶ cm/s | † | COc1ccnc(N2C[C@@H]3C[C@H](C2)N(C(=O)C2CC2)[C@H]3c2cc3c(C)nc4c(F)c(-c5cccc(Cl)c5Cl)c(CCC#N)cc4c3n2[C@H]2[C@H]3CN[C@@H]2C3)n1 (atropisomer, axis not shown; (Ra)) [Example 42, 3-((Ra)-1-((1R,4R,5S)-2-azabicyclo[2.1.1]hexan-5-yl)-2-((1S,5R,7R)-6-(cyclopropanecarbonyl)-3-(4-methoxypyrimidin-2-yl)-3,6-diazabicyclo[3.2.1]octan-7-yl)-7-(2,3-dichlorophenyl)-6-fluoro-4-methyl-1H-pyrrolo[3,2-c]quinolin-8-yl)propanenitrile]
† | ≤ 0.5 ×10⁻⁶ cm/s | † | Cc1nc2c(F)c(-c3cccc(Cl)c3Cl)c(CCC#N)cc2c2c1cc([C@H]1[C@H]3C[C@H](CN(c4nccc(C(F)(F)F)n4)C3)N1C(=O)C1CC1)n2[C@H]1[C@H]2CN[C@@H]1C2 (atropisomer, axis not shown; (Ra)) [Example 43, 3-((Ra)-1-((1R,4R,5S)-2-azabicyclo[2.1.1]hexan-5-yl)-2-((1S,5R,7R)-6-(cyclopropanecarbonyl)-3-(4-(trifluoromethyl)pyrimidin-2-yl)-3,6-diazabicyclo[3.2.1]octan-7-yl)-7-(2,3-dichlorophenyl)-6-fluoro-4-methyl-1H-pyrrolo[3,2-c]quinolin-8-yl)propanenitrile]
